± gives the expanded uncertainty stated by the source.
Settings: Liquid, Vibrating tube method

CCCCO [butan-1-ol]
Settings | mass density [kg/m3]
293.15 K, 100 kPa | 809.5 ± 0.5
293.15 K, 10000 kPa | 816.4 ± 0.5
293.15 K, 20000 kPa | 822.9 ± 0.5
293.15 K, 30000 kPa | 828.9 ± 0.6
293.15 K, 40000 kPa | 834.5 ± 0.6
293.15 K, 50000 kPa | 839.8 ± 0.6
293.15 K, 60000 kPa | 844.7 ± 0.7
293.15 K, 70000 kPa | 849.6 ± 0.7
293.15 K, 80000 kPa | 854.2 ± 0.7
293.15 K, 90000 kPa | 858.5 ± 0.8
293.15 K, 100000 kPa | 862.9 ± 0.8
293.15 K, 110000 kPa | 866.7 ± 0.8
293.15 K, 120000 kPa | 870.8 ± 0.9
293.15 K, 130000 kPa | 874.4 ± 0.9
293.15 K, 140000 kPa | 878.1 ± 1
303.15 K, 100 kPa | 802 ± 0.5
303.15 K, 10000 kPa | 809.4 ± 0.5
303.15 K, 20000 kPa | 816 ± 0.6
303.15 K, 30000 kPa | 822.3 ± 0.6
303.15 K, 40000 kPa | 828 ± 0.6
303.15 K, 50000 kPa | 833.6 ± 0.6
303.15 K, 60000 kPa | 838.7 ± 0.7
303.15 K, 70000 kPa | 843.6 ± 0.7
303.15 K, 80000 kPa | 848.3 ± 0.7
303.15 K, 90000 kPa | 852.7 ± 0.8
303.15 K, 100000 kPa | 857 ± 0.8
303.15 K, 110000 kPa | 861.2 ± 0.9
303.15 K, 120000 kPa | 865 ± 0.9
303.15 K, 130000 kPa | 868.9 ± 0.9
303.15 K, 140000 kPa | 872.6 ± 1
313.15 K, 100 kPa | 794.1 ± 0.5
313.15 K, 10000 kPa | 801.6 ± 0.5
313.15 K, 20000 kPa | 809.1 ± 0.6
313.15 K, 30000 kPa | 815.4 ± 0.6
313.15 K, 40000 kPa | 821.4 ± 0.6
313.15 K, 50000 kPa | 827.2 ± 0.6
313.15 K, 60000 kPa | 832.6 ± 0.7
313.15 K, 70000 kPa | 837.8 ± 0.7
313.15 K, 80000 kPa | 842.6 ± 0.8
313.15 K, 90000 kPa | 847.3 ± 0.8
313.15 K, 100000 kPa | 851.6 ± 0.8
313.15 K, 110000 kPa | 856 ± 0.9
313.15 K, 120000 kPa | 860.1 ± 0.9
313.15 K, 130000 kPa | 864 ± 1
313.15 K, 140000 kPa | 867.9 ± 1
323.15 K, 100 kPa | 786.5 ± 0.5
323.15 K, 10000 kPa | 794.5 ± 0.5
323.15 K, 20000 kPa | 801.7 ± 0.6
323.15 K, 30000 kPa | 808.5 ± 0.6
323.15 K, 40000 kPa | 815 ± 0.6
323.15 K, 50000 kPa | 821 ± 0.7
323.15 K, 60000 kPa | 826.5 ± 0.7
323.15 K, 70000 kPa | 831.5 ± 0.7
323.15 K, 80000 kPa | 836.3 ± 0.8
323.15 K, 90000 kPa | 841.1 ± 0.8
323.15 K, 100000 kPa | 845.8 ± 0.9
323.15 K, 110000 kPa | 850.1 ± 0.9
323.15 K, 120000 kPa | 854.3 ± 0.9
323.15 K, 130000 kPa | 858.3 ± 1
323.15 K, 140000 kPa | 862.1 ± 1
333.15 K, 100 kPa | 778.3 ± 0.5
333.15 K, 10000 kPa | 786.8 ± 0.5
333.15 K, 20000 kPa | 794.6 ± 0.6
333.15 K, 30000 kPa | 801.7 ± 0.6
333.15 K, 40000 kPa | 808.4 ± 0.6
333.15 K, 50000 kPa | 814.6 ± 0.7
333.15 K, 60000 kPa | 820.3 ± 0.7
333.15 K, 70000 kPa | 825.6 ± 0.7
333.15 K, 80000 kPa | 830.8 ± 0.8
333.15 K, 90000 kPa | 836 ± 0.8
333.15 K, 100000 kPa | 840.5 ± 0.9
333.15 K, 110000 kPa | 844.9 ± 0.9
333.15 K, 120000 kPa | 849 ± 1
333.15 K, 130000 kPa | 853.2 ± 1
333.15 K, 140000 kPa | 857 ± 1
343.15 K, 100 kPa | 769.9 ± 0.5
343.15 K, 10000 kPa | 779 ± 0.5
343.15 K, 20000 kPa | 787.1 ± 0.6
343.15 K, 30000 kPa | 794.4 ± 0.6
343.15 K, 40000 kPa | 801.3 ± 0.6
343.15 K, 50000 kPa | 807.8 ± 0.7
343.15 K, 60000 kPa | 813.6 ± 0.7
343.15 K, 70000 kPa | 819.3 ± 0.8
343.15 K, 80000 kPa | 824.6 ± 0.8
343.15 K, 90000 kPa | 829.5 ± 0.8
343.15 K, 100000 kPa | 834.4 ± 0.9
343.15 K, 110000 kPa | 838.9 ± 0.9
343.15 K, 120000 kPa | 843.3 ± 1
343.15 K, 130000 kPa | 847.5 ± 1
343.15 K, 140000 kPa | 851.6 ± 1.1
353.15 K, 100 kPa | 760.9 ± 0.5
353.15 K, 10000 kPa | 770.6 ± 0.5
353.15 K, 20000 kPa | 779.2 ± 0.6
353.15 K, 30000 kPa | 787.1 ± 0.6
353.15 K, 40000 kPa | 794.3 ± 0.6
353.15 K, 50000 kPa | 800.9 ± 0.7
353.15 K, 60000 kPa | 807.7 ± 0.7
353.15 K, 70000 kPa | 813.2 ± 0.8
353.15 K, 80000 kPa | 818.9 ± 0.8
353.15 K, 90000 kPa | 823.9 ± 0.9
353.15 K, 100000 kPa | 828.8 ± 0.9
353.15 K, 110000 kPa | 833.5 ± 1
353.15 K, 120000 kPa | 838.1 ± 1
353.15 K, 130000 kPa | 842.1 ± 1.1
353.15 K, 140000 kPa | 846.5 ± 1.1
363.15 K, 100 kPa | 751.9 ± 0.5
363.15 K, 10000 kPa | 762.6 ± 0.5
363.15 K, 20000 kPa | 771.7 ± 0.6
363.15 K, 30000 kPa | 780.1 ± 0.6
363.15 K, 40000 kPa | 787.4 ± 0.7
363.15 K, 50000 kPa | 794.3 ± 0.7
363.15 K, 60000 kPa | 800.9 ± 0.7
363.15 K, 70000 kPa | 807 ± 0.8
363.15 K, 80000 kPa | 812.5 ± 0.8
363.15 K, 90000 kPa | 817.9 ± 0.9
363.15 K, 100000 kPa | 822.9 ± 0.9
363.15 K, 110000 kPa | 827.7 ± 1
363.15 K, 120000 kPa | 832.4 ± 1
363.15 K, 130000 kPa | 836.8 ± 1.1
363.15 K, 140000 kPa | 841 ± 1.1
373.15 K, 100 kPa | 742.4 ± 0.5
373.15 K, 10000 kPa | 753.4 ± 0.5
373.15 K, 20000 kPa | 763.3 ± 0.6
373.15 K, 30000 kPa | 772.2 ± 0.6
373.15 K, 40000 kPa | 780 ± 0.7
373.15 K, 50000 kPa | 787.2 ± 0.7
373.15 K, 60000 kPa | 793.8 ± 0.8
373.15 K, 70000 kPa | 800.2 ± 0.8
373.15 K, 80000 kPa | 805.8 ± 0.9
373.15 K, 90000 kPa | 811.5 ± 0.9
373.15 K, 100000 kPa | 817 ± 1
373.15 K, 110000 kPa | 821.9 ± 1
373.15 K, 120000 kPa | 826.3 ± 1.1
373.15 K, 130000 kPa | 831 ± 1.1
373.15 K, 140000 kPa | 835.3 ± 1.2
383.15 K, 100 kPa | 732.2 ± 0.5
383.15 K, 10000 kPa | 744.7 ± 0.5
383.15 K, 20000 kPa | 754.6 ± 0.6
383.15 K, 30000 kPa | 764.3 ± 0.6
383.15 K, 40000 kPa | 772.2 ± 0.7
383.15 K, 50000 kPa | 779.6 ± 0.7
383.15 K, 60000 kPa | 786.6 ± 0.8
383.15 K, 70000 kPa | 793.2 ± 0.8
383.15 K, 80000 kPa | 799.1 ± 0.9
383.15 K, 90000 kPa | 804.9 ± 0.9
383.15 K, 100000 kPa | 810.3 ± 1
383.15 K, 110000 kPa | 815.4 ± 1
383.15 K, 120000 kPa | 820.4 ± 1.1
383.15 K, 130000 kPa | 825 ± 1.1
383.15 K, 140000 kPa | 829.6 ± 1.2
393.15 K, 10000 kPa | 735.3 ± 0.6
393.15 K, 20000 kPa | 746.4 ± 0.6
393.15 K, 30000 kPa | 755.9 ± 0.6
393.15 K, 40000 kPa | 764.9 ± 0.7
393.15 K, 50000 kPa | 772.3 ± 0.7
393.15 K, 60000 kPa | 779.6 ± 0.8
393.15 K, 70000 kPa | 786.3 ± 0.8
393.15 K, 80000 kPa | 792.8 ± 0.9
393.15 K, 90000 kPa | 798.8 ± 0.9
393.15 K, 100000 kPa | 804.3 ± 1
393.15 K, 110000 kPa | 809.7 ± 1.1
393.15 K, 120000 kPa | 814.7 ± 1.1
393.15 K, 130000 kPa | 819.3 ± 1.2
393.15 K, 140000 kPa | 823.9 ± 1.3
403.15 K, 10000 kPa | 725.6 ± 0.6
403.15 K, 20000 kPa | 737.3 ± 0.6
403.15 K, 30000 kPa | 747.7 ± 0.6
403.15 K, 40000 kPa | 756.9 ± 0.7
403.15 K, 50000 kPa | 765.4 ± 0.7
403.15 K, 60000 kPa | 772.8 ± 0.8
403.15 K, 70000 kPa | 779.9 ± 0.9
403.15 K, 80000 kPa | 786.5 ± 0.9
403.15 K, 90000 kPa | 792.6 ± 1
403.15 K, 100000 kPa | 798.5 ± 1
403.15 K, 110000 kPa | 803.9 ± 1.1
403.15 K, 120000 kPa | 809.1 ± 1.1
403.15 K, 130000 kPa | 814.1 ± 1.2
403.15 K, 140000 kPa | 819.3 ± 1.3

From the NIST ThermoML archive (doi:10.1016/j.fluid.2010.11.020)
